From patent publication US8846657B2, “Substituted imidazopyridines as HDM2 inhibitors” (Merck Sharp & Dohme Corp., priority 2012, dated 2014) come the findings set out here.

HDM2, sequence (Q00987 17-125): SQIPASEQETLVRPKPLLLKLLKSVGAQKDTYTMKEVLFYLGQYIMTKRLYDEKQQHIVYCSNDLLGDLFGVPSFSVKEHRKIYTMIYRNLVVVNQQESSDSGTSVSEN

The first assay addresses HDM2 (Homo sapiens (Human), UniProt Q00987). The assay is described as follows: HDM2 FRET assay (inhibition of p53 peptide binding to HDM2). The following applies: read-out: FRET IC50.
Description: Methods: An HDM2 FRET assay was developed to assess the compounds' inhibitory activity towards binding of p53 protein. […] Ratio of em520/em495 was used to calculate % inhibition and to obtain IC50 with 4-parameter logistic equation.
Concentration of compound was plotted against em520/Cem495 ratio signal. To generate IC50 values, the dose-response curves were fitted to a standard sigmoidal curve and IC50 values were derived by nonlinear regression analysis.
For the compound `C[C@H]1CC[C@H](Cn2c(N3CCC[C@H]3C(F)(F)F)nc3cc(-c4nnn[nH]4)nc(-c4cncc(Cl)c4)c32)CC1` [Example 14.1, 4-(5-chloropyridin-3-yl)-3-[(trans-4-methylcyclohexyl)methyl]-6-(1H-tetrazol-5-yl)-2-[(2S)-2-(trifluoromethyl)pyrrolidin-1-yl]-3H-imidazo[4,5-c]pyridine], the IC50 was under 1 nM.
The same measure, in the same setting: the value for `C[C@H]1CC[C@H](Cn2c(N3CCO[C@@H]4CCC[C@H]43)nc3cc(-c4nnn[nH]4)nc(-c4cncc(Cl)c4)c32)CC1` [Example 14.4, 4-(5-chloropyridin-3-yl)-2-[(4aR,7aR)-hexahydrocyclopenta[b][1,4]oxazin-4(4aH)-yl]-3-[(trans-4-methylcyclohexyl)methyl]-6-(1H-tetrazol-5-yl)-3H-imidazo[4,5-c]pyridine] was under 1 nM.

The same assay, now with this note: read-out: FRET IC50; 0.5 nM HDM2 (residues 17-125), 3 nM FITC peptide, 2 h at room temperature; values rounded to the nearest integer.
For the compound `C[C@H]1CC[C@H](Cn2c(N3CCOC[C@H]3c3ccccc3)nc3cc(-c4noc(=O)[nH]4)nc(-c4cncc(Cl)c4)c32)CC1` [Example 2.1, 3-{4-(5-chloropyridin-3-yl)-3-[(trans-4-methylcyclohexyl)methyl]-2-[(3R)-3-phenylmorpholin-4-yl]-3H-imidazo[4,5-c]pyridin-6-yl}-1,2,4-oxadiazol-5(4H)-one], the IC50 is under 1 nM.
Still for that read-out and setting: the value for `C[C@H]1CC[C@H](Cn2c(N3CCC[C@H]3c3nccs3)nc3cc(-c4noc(=O)[nH]4)nc(-c4cncc(Cl)c4)c32)CC1` [Example 3.81, 3-{4-(5-chloropyridin-3-yl)-3-[(trans-4-methylcyclohex-yl)methyl]-2-[(2S)-2-(1,3-thiazol-2-yl)pyrrolidin-1-yl]-3H-imidazo[4,5-c]pyridin-6-yl}-1,2,4-oxadiazol-5(4H)-one] was under 1 nM; that for `CO[C@@H]1C[C@@H](C(C)C)N(c2nc3cc(-c4noc(=O)[nH]4)nc(-c4cncc(Cl)c4)c3n2C[C@H]2CC[C@H](C)CC2)C1` [Example 3.90, 3-{4-(5-chloropyridin-3-yl)-2-[(2S,4R)-4-methoxy-2-(propan-2-yl)pyrrolidin-1-yl]-3-[(trans-4-methylcyclohexyl)methyl]-3H-imidazo[4,5-d]pyridin-6-yl}-1,2,4-oxadiazol-5(4H)-one] was under 1 nM.
With `COCCO[C@@H]1C[C@@H](C(C)C)N(c2nc3cc(-c4noc(=O)[nH]4)nc(-c4cncc(Cl)c4)c3n2C[C@H]2CC[C@H](C)CC2)C1` [Example 3.144, 3-{4-(5-chloropyridin-3-yl)-2-[(2S,4R)-4-(2-methoxyethoxy)-2-(1-methylethyl)-pyrrolidin-1-yl]-3-[(trans-4-methylcyclohex-yl)methyl]-3H-imidazo[4,5-c]pyridin-6-yl}-1,2,4-oxadiazol-5(4H)-one], the IC50 was under 1 nM.

Broadly, the IC50 is the concentration at which inhibition is half-maximal.
